Data taken from ChEMBL document CHEMBL1201862, “PubChem BioAssay data set” (2004).
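Briefly, cells in 96-well plates were exposed to five compound concentrations for 48 h, and endpoints were estimated by linear interpolation. Here, GI50 denotes the concentration required for 50% inhibition of growth.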 The source made the active and inactive calls. Cut-off read from the data, not from the text of the source: active = GI50 up to about 1.1 µM and inactive = higher.

Key:
Experiment in all cases: NCI tumour cell line growth inhibition, 48 h
[1] = tested on: 786-0
[2] = tested on: A498
[3] = tested on: EKVX
[4] = tested on: HCT-116
[5] = tested on: IGROV-1
[6] = tested on: NCI-H522
[7] = tested on: OVCAR-4
[8] = tested on: OVCAR-8
[9] = tested on: SF-539
[10] = tested on: SK-MEL-2
[11] = tested on: SN12C
[12] = tested on: SNB-19
[13] = tested on: SW-620
[14] = tested on: TK-10
[15] = tested on: UACC-62
[16] = tested on: UO-31

Measured: GI50

CCCCCCCCCCCCCCCCCC(=O)NCC(COP(=O)(O)O)OCC (centres undefined)
inactive: [1] 30.7 µM | [2] 24.3 µM | [3] 46.3 µM | [4] 58.6 µM | [5] 49.9 µM | [6] 29.7 µM | [7] > 100 µM | [8] 36.6 µM | [9] 43.6 µM | [10] 38.1 µM | [11] 22 µM | [12] 47.2 µM | [13] > 100 µM | [14] 49.2 µM | [15] 54.3 µM | [16] 34.1 µM

CCCCCCCC(=O)OC(CBr)COC(=O)C(C)(C)C (centres undefined)
inactive: [1] > 100 µM | [2] > 100 µM | [3] > 100 µM | [4] > 63.4 µM | [5] > 100 µM | [6] > 100 µM | [7] > 95.1 µM | [8] > 100 µM | [9] > 10 µM | [10] > 100 µM | [11] > 100 µM | [12] > 100 µM | [13] > 100 µM | [14] > 100 µM | [15] > 100 µM | [16] > 100 µM

OCC[N+]12CCCN1CCC2
inactive: [1] > 100 µM | [2] > 100 µM | [3] > 100 µM | [4] > 100 µM | [5] > 100 µM | [6] > 100 µM | [7] > 100 µM | [8] > 100 µM | [9] > 100 µM | [10] > 100 µM | [11] > 100 µM | [12] > 100 µM | [13] > 100 µM | [14] > 100 µM | [15] > 100 µM | [16] > 100 µM

COc1ccc(N2C(=O)C3c4[nH]c5ccccc5c4C4CCCCCCCCCCC4C3C2=O)cc1 (centres undefined)
inactive: [1] 3.65 µM | [2] 9.4 µM | [3] 23.4 µM | [4] 5.25 µM | [5] > 28.2 µM | [6] 18 µM | [7] 26.2 µM | [8] 3.39 µM | [9] 11 µM | [10] > 100 µM | [11] 4.89 µM | [12] 8.81 µM | [13] 4.58 µM | [14] > 43.8 µM | [15] 18.5 µM | [16] > 40.6 µM

CCOC(=O)c1[nH]c(COC(C)=O)c2c1CCCCCCCCCC2
inactive: [1] > 100 µM | [2] > 100 µM | [3] > 100 µM | [4] > 100 µM | [5] > 100 µM | [6] > 100 µM | [7] > 100 µM | [8] > 100 µM | [9] > 100 µM | [10] > 100 µM | [11] > 100 µM | [12] > 100 µM | [13] > 100 µM | [14] > 100 µM | [15] > 100 µM | [16] > 100 µM

CN(C)c1ccc(/C=c2\sc3nnc(-c4cccnc4)n3c2=O)cc1
inactive: [1] > 100 µM | [2] > 100 µM | [3] > 100 µM | [4] > 100 µM | [5] > 100 µM | [6] > 100 µM | [7] > 100 µM | [8] > 100 µM | [9] > 100 µM | [10] > 100 µM | [11] > 100 µM | [12] > 100 µM | [13] > 100 µM | [14] > 100 µM | [15] > 100 µM | [16] > 100 µM

CC(C)C(Sc1nc(-c2ccccc2)c(-c2ccccc2)[nH]1)c1n[nH]c(=S)n1-c1ccccc1 (centres undefined)
inactive: [1] 30.8 µM | [2] 43.3 µM | [3] 26.2 µM | [4] 41.6 µM | [5] 26.4 µM | [6] 21 µM | [7] 35.5 µM | [8] 34.5 µM | [9] 22.4 µM | [10] 20.4 µM | [11] 37.2 µM | [12] 25 µM | [13] 23.4 µM | [14] 45 µM | [15] 11.5 µM | [16] 22.8 µM

CSc1nc(NC2OCC(OC(C)=O)C(OC(C)=O)C2OC(C)=O)c(/N=C\C=N\c2c(NC3OCC(OC(C)=O)C(OC(C)=O)C3OC(C)=O)nc(SC)n(C)c2=O)c(=O)n1C (centres undefined)
inactive: [1] > 100 µM | [2] > 100 µM | [3] > 100 µM | [4] > 100 µM | [5] > 100 µM | [6] > 100 µM | [7] > 100 µM | [8] > 100 µM | [9] > 100 µM | [10] > 100 µM | [11] > 100 µM | [12] 38.4 µM | [13] > 100 µM | [14] > 100 µM | [15] > 100 µM | [16] > 100 µM

COc1cc(/C=C\c2ccccc2)cc(OC)c1OC
inactive: [1] 5.08 µM | [2] 5.24 µM | [3] 6.01 µM | [4] 4.78 µM | [5] 4.65 µM | [6] 2.67 µM | [7] 6.46 µM | [8] 3.69 µM | [9] 2.56 µM | [10] 4.07 µM | [11] 5 µM | [12] 6.08 µM | [13] 2.84 µM | [14] 3.94 µM | [15] 2.49 µM | [16] 4.46 µM
